# Calls of active or inactive are those of the source. The calls are words filed in the database; no cut-off is given here.
# Experiments:
# Staphylococcus aureus [1] = experiment: Antibacterial activity Staphylococcus aureus assessed as inhibition of bacterial growth incubated for 24 hrs by CLSI based analysis; assay type: functional
# Enterococcus [2] = experiment: Antibacterial activity vancomycin-resistant Enterococcus assessed as inhibition of bacterial growth incubated for 24 hrs by CLSI based analysis; assay type: functional
# Staphylococcus aureus [3] = experiment: Antibacterial activity methicillin-resistant Staphylococcus aureus 003 assessed as inhibition of bacterial growth incubated for 24 hrs by CLSI based analysis; assay type: functional
# Staphylococcus aureus [4] = experiment: Antibacterial activity methicillin-resistant Staphylococcus aureus 011 assessed as inhibition of bacterial growth incubated for 24 hrs by CLSI based analysis; assay type: functional
# Cell membrane [5] = experiment: Disruption of bacterial cell membrane in methicilin-resistant Staphylococcus aureus 003 assessed as increase in green fluorescence intensity incubated for 1 hr by DAPI/PI staning based confocal laser microscopic analysis
# Staphylococcus aureus [6] = experiment: In vivo antibacterial activity against methicilin-resistant Staphylococcus aureus infected in ICR mouse skin infection model assessed as wound area at 10 mg/kg, ip preadministered with compound for 24 hrs followed by bacterial infection and measured after 3 days; assay type: functional; settings: time 96 hrs
# Staphylococcus aureus [7] = experiment: Bactericidal activity against methicilin-resistant Staphylococcus aureus 003 at 2 to 4 times MIC measured after 24 hrs by time kill assay; assay type: functional, organism-based
# Cell membrane [8] = experiment: Induction of inner membrane permeability in methicillin-resistant Staphylococcus aureus 003 assessed as fold change in MIC in presence of peptidoglycan; assay type: subcellular
# Staphylococcus aureus [9] = experiment: Bactericidal activity against Staphylococcus aureus at 2 to 4 times MIC measured after 24 hrs by time kill assay; assay type: functional, organism-based
# Cell membrane [10] = experiment: Disruption of bacterial cell membrane in vancomycin-resistant Enterococcus assessed as as appearance of wrinkled cell incubated for 1 hr by DAPI/PI staning based confocal laser microscopic analysis
# Staphylococcus aureus [11] = experiment: Induction of resistance development Staphylococcus aureus incubated for 24 hrs treated over 11 serial passages by broth microdilution analysis; assay type: functional, organism-based
# Staphylococcus aureus [12] = experiment: Bactericidal activity against methicilin-resistant Staphylococcus aureus 003 at 8 times MIC measured after 24 hrs by time kill assay; assay type: functional, organism-based
# Staphylococcus aureus [13] = experiment: Bactericidal activity methicillin-resistant Staphylococcus aureus 011 assessed as inhibition of bacterial growth incubated for 24 hrs by CLSI based analysis; assay type: functional
# Cell membrane [14] = experiment: Induction of inner membrane permeability in Escherichia coli assessed as increase in fluorescence intensity measured for 15 mins in presence of Polymyxin B sulfate
# Staphylococcus aureus [15] = experiment: Antibacterial activity methicillin-resistant Staphylococcus aureus 003 assessed as increase in fluorescence intensity by DiSC3(5) dye based analysis; assay type: functional, organism-based
# Staphylococcus aureus [16] = experiment: Antibacterial activity methicillin-resistant Staphylococcus aureus 003 assessed as increase in fluorescence intensity at 1 time MIC; assay type: functional
# Staphylococcus aureus [17] = experiment: Antibacterial activity methicillin-resistant Staphylococcus aureus 003 under […] condition at pH 5.5 to 9.5; assay type: functional, organism-based
# Staphylococcus aureus [18] = experiment: In vivo antibacterial activity against methicilin-resistant Staphylococcus aureus infected in ICR mouse skin infection model assessed as wound area at 5 mg/kg, ip preadministered with compound for 24 hrs followed by bacterial infection and measured after 3 days; assay type: functional; settings: time 96 hrs
# Staphylococcus aureus [19] = experiment: In vivo antibacterial activity against methicilin-resistant Staphylococcus aureus infected in ICR mouse skin infection model assessed as wound area at 20 mg/kg, ip preadministered with compound for 24 hrs followed by bacterial infection and measured after 3 days; assay type: functional; settings: time 96 hrs
# Enterococcus [20] = experiment: Antibacterial activity vancomycin-resistant Enterococcus assessed as decrease in intracellular pH at 4 time MIC measured up to 74 mins; assay type: functional, organism-based
# Cell membrane [21] = experiment: Induction of inner membrane permeability in methicillin-resistant Staphylococcus aureus 003 assessed as fold change in MIC in presence of cardiolipin; assay type: subcellular
# Staphylococcus aureus [22] = experiment: In vivo antibacterial activity against methicilin-resistant Staphylococcus aureus infected in ICR mouse skin infection model assessed as reduction in bacterial burden at 10 mg/kg, ip preadministered with compound for 24 hrs followed by bacterial infection and measured after 3 days; assay type: functional; parameters: scale not given: the % may be the effect or the level left; settings: time 96 hrs
# Acinetobacter baumannii = experiment: Antibacterial activity Acinetobacter baumannii assessed as inhibition of bacterial growth incubated for 24 hrs by CLSI based analysis; assay type: functional
# Staphylococcus aureus [23] = experiment: Antibacterial activity methicillin-resistant Staphylococcus aureus 003 assessed as downregulation of fabF expression by qRT-PCR analysis; assay type: functional, organism-based
# Staphylococcus aureus [24] = experiment: Antibacterial activity methicillin-resistant Staphylococcus aureus 003 assessed as downregulation of fabD expression by qRT-PCR analysis; assay type: functional, organism-based
# Enterococcus [25] = experiment: Bactericidal activity vancomycin-resistant Enterococcus assessed as inhibition of bacterial growth incubated for 24 hrs by CLSI based analysis; assay type: functional
# Cell membrane [26] = experiment: Induction of inner membrane permeability in vancomycin-resistant Enterococcus assessed as increase in fluorescence intensity incubated for 30 mins
# Staphylococcus aureus [27] = experiment: In vivo antibacterial activity against methicilin-resistant Staphylococcus aureus infected in ICR mouse skin infection model assessed as reduction in bacterial burden at 20 mg/kg, ip preadministered with compound for 24 hrs followed by bacterial infection and measured after 3 days; assay type: functional; parameters: scale not given: the % may be the effect or the level left; settings: time 96 hrs
# Staphylococcus aureus [28] = experiment: Antibacterial activity methicillin-resistant Staphylococcus aureus 003 assessed as downregulation of fabH expression by qRT-PCR analysis; assay type: functional, organism-based
# Staphylococcus aureus [29] = experiment: Antibacterial activity methicillin-resistant Staphylococcus aureus 003 assessed as downregulation of plsY expression by qRT-PCR analysis; assay type: functional, organism-based
# Staphylococcus aureus [30] = experiment: Antibacterial activity methicillin-resistant Staphylococcus aureus 003 assessed as downregulation of fabG expression by qRT-PCR analysis; assay type: functional, organism-based
# Enterococcus [31] = experiment: Antibacterial activity vancomycin-resistant Enterococcus under […] condition at pH 5.5 to 9.5; assay type: functional, organism-based
# Staphylococcus aureus [32] = experiment: Antibacterial activity methicillin-resistant Staphylococcus aureus 003 assessed as downregulation of fabZ expression by qRT-PCR analysis; assay type: functional, organism-based
# Staphylococcus aureus [33] = experiment: Antibacterial activity methicillin-resistant Staphylococcus aureus 003 assessed as decrease in intracellular pH at 4 time MIC measured up to 74 mins; assay type: functional, organism-based
# Cell membrane [34] = experiment: Disruption of bacterial cell membrane in methicilin-resistant Staphylococcus aureus 003 assessed as as appearance of wrinkled cell incubated for 1 hr by DAPI/PI staning based confocal laser microscopic analysis; assay type: subcellular
# Cell membrane [35] = experiment: Induction of inner membrane permeability in methicillin-resistant Staphylococcus aureus 003 assessed as fold change in MIC in presence of phosphatidylethanolamine; assay type: subcellular
# Cell membrane [36] = experiment: Induction of inner membrane permeability in methicillin-resistant Staphylococcus aureus 003 assessed as increase in fluorescence intensity incubated for 30 mins
# Staphylococcus aureus [37] = experiment: Bactericidal activity Staphylococcus aureus assessed as inhibition of bacterial growth incubated for 24 hrs by CLSI based analysis; assay type: functional
# Staphylococcus aureus [38] = experiment: Induction of resistance development in methicilin-resistant Staphylococcus aureus 003 incubated for 24 hrs treated over 11 serial passages by broth microdilution analysis; assay type: functional, organism-based
# Staphylococcus aureus [39] = experiment: Antibacterial activity methicillin-resistant Staphylococcus aureus 003 assessed as decrease in membrane fluidity incubated for 50 mins; assay type: functional, organism-based
# Staphylococcus aureus [40] = experiment: Antibacterial activity methicillin-resistant Staphylococcus aureus 003 assessed as ROS accumulation at 2 to 8 times MIC incubated for 60 mins; assay type: functional, organism-based
# Staphylococcus aureus [41] = experiment: Induction of resistance development in methicilin-resistant Staphylococcus aureus incubated for 24 hrs treated over 20 serial passages by broth microdilution analysis; assay type: functional, organism-based
# Staphylococcus aureus [42] = experiment: Antibacterial activity methicillin-resistant Staphylococcus aureus 003 assessed as inhibition of H2S production at 1/4 to 1/8 times MIC; assay type: functional, organism-based
# Cell membrane [43] = experiment: Induction of inner membrane permeability in methicillin-resistant Staphylococcus aureus 003 assessed as fold change in MIC in presence of phosphatidylglycerol; assay type: subcellular
# Staphylococcus aureus [44] = experiment: Antibacterial activity methicillin-resistant Staphylococcus aureus 003 assessed as inhibition of H2S production at 1/4 times MIC; assay type: functional
# Staphylococcus aureus [45] = experiment: Induction of resistance development in Staphylococcus aureus incubated for 24 hrs treated over 20 serial passages by broth microdilution analysis; assay type: functional, organism-based
# Escherichia coli = experiment: Antibacterial activity Escherichia coli assessed as inhibition of bacterial growth incubated for 24 hrs by CLSI based analysis; assay type: functional
# Staphylococcus aureus [46] = experiment: Bactericidal activity methicillin-resistant Staphylococcus aureus 003 assessed as inhibition of bacterial growth incubated for 24 hrs by CLSI based analysis; assay type: functional
# Staphylococcus aureus [47] = experiment: Antibacterial activity methicillin-resistant Staphylococcus aureus 003 assessed as increase in fluorescence intensity at 4 time MIC; assay type: functional
# Staphylococcus aureus [48] = experiment: Bactericidal activity against Staphylococcus aureus at 2 to 4 times MIC measured after 30 mins by time kill assay; assay type: functional, organism-based
# Staphylococcus aureus [49] = experiment: Antibacterial activity methicillin-resistant Staphylococcus aureus 003 assessed as increase in intracellular ATP level incubated for 30 mins; assay type: functional, organism-based
# Staphylococcus aureus [50] = experiment: In vivo antibacterial activity against methicilin-resistant Staphylococcus aureus infected in ICR mouse skin infection model assessed as reduction in bacterial burden at 5 mg/kg, ip preadministered with compound for 24 hrs followed by bacterial infection and measured after 3 days; assay type: functional; parameters: scale not given: the % may be the effect or the level left; settings: time 96 hrs
# Staphylococcus aureus [51] = experiment: Antibacterial activity methicillin-resistant Staphylococcus aureus 003 assessed as inhibition of H2S production at 50 uM; assay type: functional
# Staphylococcus aureus [52] = experiment: Bactericidal activity against methicilin-resistant Staphylococcus aureus 003 at 4 times MIC measured after 24 hrs by time kill assay; assay type: functional, organism-based
# Cell membrane [53] = experiment: Disruption of bacterial cell membrane in methicilin-resistant Staphylococcus aureus 003 assessed as increase in red fluorescence intensity incubated for 1 hr by DAPI/PI staning based confocal laser microscopic analysis
# Staphylococcus aureus [54] = experiment: Bactericidal activity against Staphylococcus aureus at 4 times MIC measured after 24 hrs by time kill assay; assay type: functional, organism-based
smiles,measurement,setting,value
C[C@@H](O)[C@H]1C(=O)N2C(C(=O)O)=C(S[C@@H]3CN[C@H](C(=O)N(C)C)C3)[C@H](C)[C@H]12 [MEROPENEM],MIC,Staphylococcus aureus [1],2 µg/mL
same,MIC,Enterococcus [2],8 µg/mL
same,MIC,Staphylococcus aureus [3],> 128 µg/mL
same,MIC,Staphylococcus aureus [4],> 128 µg/mL
same,Activity,Cell membrane [5],Active
CC(C)=CCc1c(-c2ccc(O)cc2O)oc2c3c(cc(O)c2c1=O)OC(C)(C)C=C3 [MORUSIN],Activity,Staphylococcus aureus [6],0.16 cm2
same,Activity,Staphylococcus aureus [7],Active
same,Activity,Cell membrane [8],inactive
same,Activity,Staphylococcus aureus [9],Active
same,MIC,Staphylococcus aureus [1],4 µg/mL
same,Activity,Cell membrane [10],Active
same,Activity,Staphylococcus aureus [11],Active
same,Activity,Staphylococcus aureus [12],Active
same,MBC,Staphylococcus aureus [13],16 µg/mL
same,MIC,Enterococcus [2],8 µg/mL
same,Flu intensity,Cell membrane [14],0.9
same,Activity,Staphylococcus aureus [15],Dose-Dependent Effect
same,Flu intensity,Staphylococcus aureus [16],334
same,Activity,Staphylococcus aureus [17],Active
same,Activity,Staphylococcus aureus [18],0.3 cm2
same,Activity,Staphylococcus aureus [19],0.1 cm2
same,MIC,Staphylococcus aureus [3],4 µg/mL
same,Activity,Enterococcus [20],Active
same,fold change (FC),Cell membrane [21],8
same,Activity,Staphylococcus aureus [22],80%
same,MIC,Staphylococcus aureus [4],8 µg/mL
same,MIC,Acinetobacter baumannii,> 512 µg/mL
same,Activity,Staphylococcus aureus [23],Active
same,Activity,Staphylococcus aureus [24],Active
same,MBC,Enterococcus [25],16 µg/mL
same,Activity,Cell membrane [26],Dose-Dependent Effect
same,Activity,Staphylococcus aureus [27],90%
same,Activity,Staphylococcus aureus [28],Active
same,Activity,Staphylococcus aureus [29],Active
same,Activity,Staphylococcus aureus [30],Active
same,Activity,Enterococcus [31],Active
same,Activity,Staphylococcus aureus [32],Active
same,Activity,Staphylococcus aureus [33],Active
same,Activity,Cell membrane [34],Active
same,fold change (FC),Cell membrane [35],32
same,Activity,Cell membrane [36],Dose-Dependent Effect
same,MBC,Staphylococcus aureus [37],8 µg/mL
same,Activity,Staphylococcus aureus [38],Active
same,Activity,Staphylococcus aureus [39],Dose-Dependent Effect
same,Activity,Staphylococcus aureus [40],Active
same,Activity,Staphylococcus aureus [41],inactive
same,inhibition,Staphylococcus aureus [42],Active
same,fold change (FC),Cell membrane [43],8
same,inhibition (INH),Staphylococcus aureus [44],12%
same,Activity,Staphylococcus aureus [45],inactive
same,MIC,Escherichia coli,> 512 µg/mL
same,MBC,Staphylococcus aureus [46],16 µg/mL
same,Flu intensity,Staphylococcus aureus [47],354
same,Activity,Staphylococcus aureus [48],Active
same,Activity,Staphylococcus aureus [49],Dose-Dependent Effect
same,Activity,Staphylococcus aureus [50],50%
CCc1ccc(CCOc2ccc(CC3SC(=O)NC3=O)cc2)nc1 (configuration not stated) [PIOGLITAZONE],inhibition at 50 µM,Staphylococcus aureus [51],54%
CN[C@H](CC(C)C)C(=O)N[C@H]1C(=O)N[C@@H](CC(N)=O)C(=O)N[C@H]2C(=O)N[C@H]3C(=O)N[C@H](C(=O)N[C@H](C(=O)O)c4cc(O)cc(O)c4-c4cc3ccc4O)[C@H](O)c3ccc(c(Cl)c3)Oc3cc2cc(c3O[C@@H]2O[C@H](CO)[C@@H](O)[C@H](O)[C@H]2O[C@H]2C[C@](C)(N)[C@H](O)[C@H](C)O2)Oc2ccc(cc2Cl)[C@H]1O [VANCOMYCIN],MIC,Enterococcus [2],64 µg/mL
same,Activity,Staphylococcus aureus [52],inactive
same,Activity,Staphylococcus aureus [18],0.16 cm2
same,Activity,Cell membrane [53],Active
same,Activity,Staphylococcus aureus [54],inactive
